The source of these data is PubChem BioAssay AID1745844 (Carcinogenic Potency Database (CPDB), 2022).

Active and inactive are the calls of the source. How the calls were made is not given here.

The subject of this series is rodent lifetime carcinogenesis bioassay, tumor incidence TD50. Put plainly: chronic cancer bioassays in animals – CPDB, compiled studies (AID 1745844).

On to `Nc1nc(=S)c2ncn([C@H]3C[C@H](O)[C@@H](CO)O3)c2[nH]1`, for which the TD50 is, setting by setting: (mouse, strain B6C3F1, females, i.p., site: any site (literature study), lesion: several types, types named in the paper, dosed 43 weeks, study length 77 weeks) 4.48 mg/kg/day; (mouse, strain B6C3F1, females, i.p., site: lung, lesion: alveolar/bronchiolar adenoma + alveolar/bronchiolar carcinoma, dosed 43 weeks, study length 77 weeks) 6.87 mg/kg/day; (rat, strain Sprague-Dawley, females, i.p., site: any site (literature study), lesion: several types, types named in the paper, dosed 52 weeks, study length 78 weeks) 4.11 mg/kg/day; (rat, strain Sprague-Dawley, females, i.p., site: ear canal, lesion: carcinoma, NOS + squamous-cell carcinoma, dosed 52 weeks, study length 78 weeks) 2.1 mg/kg/day; (rat, strain Sprague-Dawley, females, i.p., site: ear canal, lesion: squamous-cell carcinoma, dosed 52 weeks, study length 78 weeks) 2.31 mg/kg/day; (rat, strain Sprague-Dawley, males, i.p., site: all sites, lesion: lymphoma, dosed 52 weeks, study length 78 weeks) 5.75 mg/kg/day. In addition, the TD50 (rat, strain Sprague-Dawley, males, i.p., site: ear canal, lesion: carcinoma, NOS + squamous-cell carcinoma, dosed 52 weeks, study length 78 weeks) is 4.38 mg/kg/day.

Consider `CC(=O)O[C@]1(C(C)=O)CC[C@H]2[C@@H]3C=C(Cl)C4=CC(=O)[C@@H]5C[C@@H]5[C@]4(C)[C@H]3CC[C@@]21C`, for which the TD50 (mouse, strain C57BL/10J, females, in feed, site: liver, lesion: hepatocellular adenoma, dosed 97 weeks, study length 97 weeks) stood at 1120 mg/kg/day; the TD50 (mouse, strain C57BL/10J, females, in feed, site: liver, lesion: hepatocellular carcinoma, dosed 97 weeks, study length 97 weeks) is 254 mg/kg/day; the TD50 (mouse, strain C57BL/10J, females, in feed, site: liver, lesion: several types, types named in the paper, dosed 97 weeks, study length 97 weeks) was 254 mg/kg/day; the TD50 (mouse, strain C57BL/10J, females, in feed, site: pylorus, lesion: adenomatous polyp, dosed 97 weeks, study length 97 weeks) was 16.8 mg/kg/day; the TD50 (mouse, strain C57BL/10J, males, in feed, site: liver, lesion: hepatocellular adenoma, dosed 104 weeks, study length 104 weeks) stood at 333 mg/kg/day; the TD50 (mouse, strain C57BL/10J, males, in feed, site: liver, lesion: hepatocellular carcinoma, dosed 104 weeks, study length 104 weeks) was 179 mg/kg/day. Moreover, the TD50 reads like this: (mouse, strain C57BL/10J, males, in feed, site: liver, lesion: several types, types named in the paper, dosed 104 weeks, study length 104 weeks) 115 mg/kg/day; (mouse, strain C57BL/10J, males, in feed, site: pylorus, lesion: adenomatous polyp, dosed 104 weeks, study length 104 weeks) 31.6 mg/kg/day.

As for `CC(C)OC(=O)COc1ccc(Cl)cc1Cl`, the TD50 was 83.2 mg/kg/day (inactive) (mouse, strain B6AKF1, females, oral dosing, site: any site (literature study), lesion: several types, types named in the paper, dosed 76 weeks, study length 76 weeks); 94.7 mg/kg/day (inactive) (mouse, strain B6AKF1, females, oral dosing, site: liver, lesion: hepatocellular carcinoma, dosed 76 weeks, study length 76 weeks); 48.7 mg/kg/day (inactive) (mouse, strain B6C3F1, females, oral dosing, site: any site (literature study), lesion: several types, types named in the paper, dosed 76 weeks, study length 76 weeks); 100 mg/kg/day (inactive) (mouse, strain B6C3F1, females, oral dosing, site: liver, lesion: hepatoma, dosed 76 weeks, study length 76 weeks); 100 mg/kg/day (inactive) (mouse, strain B6C3F1, females, oral dosing, site: lung, lesion: adenoma, dosed 76 weeks, study length 76 weeks); 16.4 mg/kg/day (inactive) (mouse, strain B6C3F1, males, oral dosing, site: any site (literature study), lesion: several types, types named in the paper, dosed 76 weeks, study length 76 weeks). The TD50 runs as follows: (mouse, strain B6C3F1, males, oral dosing, site: liver, lesion: hepatoma, dosed 76 weeks, study length 76 weeks) 93.6 mg/kg/day (inactive); (mouse, strain B6C3F1, males, oral dosing, site: lung, lesion: adenoma, dosed 76 weeks, study length 76 weeks) 21.3 mg/kg/day (inactive). In addition, the carcinogen call (mouse, strain B6AKF1, females, oral dosing, site: lung, lesion: adenoma, dosed 76 weeks, study length 76 weeks) is “negative (inactive)”; the carcinogen call (mouse, strain B6AKF1, males, oral dosing, site: any site (literature study), lesion: several types, types named in the paper, dosed 76 weeks, study length 76 weeks) is “negative (inactive)”; the carcinogen call (mouse, strain B6AKF1, males, oral dosing, site: liver, lesion: hepatoma, dosed 76 weeks, study length 76 weeks) is “negative (inactive)”; the carcinogen call (mouse, strain B6AKF1, males, oral dosing, site: lung, lesion: adenoma, dosed 76 weeks, study length 76 weeks) is “negative (inactive)”.

With `CCCCNC(N)=O`, the carcinogen call (mouse, strain C57BL/6, females, in feed, site: any site (literature study), lesion: several types, types named in the paper, dosed 52 weeks, study length 69 weeks) is “negative (inactive)”; the carcinogen call (mouse, strain C57BL/6, females, in feed, site: liver, lesion: hepatocellular carcinoma, dosed 52 weeks, study length 69 weeks) was “negative (inactive)”; the carcinogen call (mouse, strain C57BL/6, females, in feed, site: lung, lesion: adenoma, dosed 52 weeks, study length 69 weeks) is “negative (inactive)”; the carcinogen call (mouse, strain C57BL/6, males, in feed, site: liver, lesion: hepatocellular carcinoma, dosed 52 weeks, study length 69 weeks) is “negative (inactive)”; the carcinogen call (rat, strain Fischer 344, females, in feed, site: any site (literature study), lesion: several types, types named in the paper, dosed 52 weeks, study length 69 weeks) was “negative (inactive)”; the carcinogen call (rat, strain Fischer 344, females, in feed, site: liver, lesion: one or several types, types not named, dosed 52 weeks, study length 69 weeks) is “negative (inactive)”. Also, the carcinogen call is, setting by setting: (rat, strain Fischer 344, males, in feed, site: any site (literature study), lesion: several types, types named in the paper, dosed 52 weeks, study length 69 weeks) “negative (inactive)”; (rat, strain Fischer 344, males, in feed, site: liver, lesion: one or several types, types not named, dosed 52 weeks, study length 69 weeks) “negative (inactive)”. For the same compound, the TD50 by setting is: (mouse, strain C57BL/6, males, in feed, site: any site (literature study), lesion: several types, types named in the paper, dosed 52 weeks, study length 69 weeks) 699 mg/kg/day (inactive); (mouse, strain C57BL/6, males, in feed, site: lung, lesion: adenoma, dosed 52 weeks, study length 69 weeks) 5510 mg/kg/day (inactive).

With `O=CNNc1nc(-c2ccco2)cs1`, where the note is “rat, strain Sprague-Dawley, females, in feed, site: any site (literature study), lesion: several types, types named in the paper, dosed 46 weeks, study length 64 weeks”, the carcinogen call was “negative (inactive)”.

On to `COc1cc(/C=C/C(=O)O[C@H]2CC[C@]34C[C@]35CC[C@]3(C)[C@@H]([C@H](C)CCC=C(C)C)CC[C@@]3(C)[C@@H]5CC[C@H]4C2(C)C)ccc1O`, for which the TD50 (mouse, strain B6C3F1, females, in feed, site: all sites, lesion: malignant lymphoma, dosed 78 weeks, study length 79 weeks) is 5970 mg/kg/day (inactive); the TD50 (mouse, strain B6C3F1, males, in feed, site: all sites, lesion: malignant lymphoma, dosed 78 weeks, study length 79 weeks) is 15900 mg/kg/day (inactive); the TD50 (rat, strain F344/DuCrj, males, in feed, site: liver, lesion: neoplastic nodule, dosed 104 weeks, study length 105 weeks) was 68500 mg/kg/day (inactive). Also, the carcinogen call is “negative (inactive)” (mouse, strain B6C3F1, females, in feed, site: liver, lesion: hepatocellular carcinoma, dosed 78 weeks, study length 79 weeks); “negative (inactive)” (mouse, strain B6C3F1, females, in feed, site: liver, lesion: neoplastic nodule, dosed 78 weeks, study length 79 weeks); “negative (inactive)” (mouse, strain B6C3F1, females, in feed, site: lung, lesion: alveolar/bronchiolar adenoma, dosed 78 weeks, study length 79 weeks); “negative (inactive)” (mouse, strain B6C3F1, males, in feed, site: liver, lesion: hepatocellular carcinoma, dosed 78 weeks, study length 79 weeks); “negative (inactive)” (mouse, strain B6C3F1, males, in feed, site: liver, lesion: neoplastic nodule, dosed 78 weeks, study length 79 weeks); “negative (inactive)” (mouse, strain B6C3F1, males, in feed, site: lung, lesion: alveolar/bronchiolar adenocarcinoma, dosed 78 weeks, study length 79 weeks). Besides, the carcinogen call by setting is: (mouse, strain B6C3F1, males, in feed, site: lung, lesion: alveolar/bronchiolar adenoma, dosed 78 weeks, study length 79 weeks) “negative (inactive)”; (rat, strain F344/DuCrj, females, in feed, site: liver, lesion: neoplastic nodule, dosed 104 weeks, study length 105 weeks) “negative (inactive)”.

Consider `ClC#CCl`, for which the TD50 runs as follows: (mouse, strain NMRI, females, inhaled, site: Harderian gland, lesion: cystadenoma, dosed 52 weeks, study length 98 weeks) 3.02 mg/kg/day; (mouse, strain NMRI, females, inhaled, site: Harderian gland, lesion: cystadenoma, dosed 78 weeks, study length 119 weeks) 0.55 mg/kg/day; (mouse, strain NMRI, females, inhaled, site: Harderian gland, lesion: cystadenoma, dosed 78 weeks, study length 129 weeks) 0.499 mg/kg/day; (mouse, strain NMRI, females, inhaled, site: kidney, lesion: cystadenoma, dosed 52 weeks, study length 98 weeks) 1.03 mg/kg/day; (mouse, strain NMRI, females, inhaled, site: kidney, lesion: cystadenoma, dosed 78 weeks, study length 119 weeks) 1.08 mg/kg/day; (mouse, strain NMRI, females, inhaled, site: kidney, lesion: cystadenoma, dosed 78 weeks, study length 129 weeks) 7.8 mg/kg/day. Besides, the TD50 reads like this: (mouse, strain NMRI, females, inhaled, site: lung, lesion: adenoma, dosed 78 weeks, study length 119 weeks) 2.73 mg/kg/day; (mouse, strain NMRI, males, inhaled, site: Harderian gland, lesion: cystadenoma, dosed 78 weeks, study length 118 weeks) 0.687 mg/kg/day; (mouse, strain NMRI, males, inhaled, site: Harderian gland, lesion: cystadenoma, dosed 78 weeks, study length 127 weeks) 1.01 mg/kg/day; (mouse, strain NMRI, males, inhaled, site: kidney, lesion: cystadenocarcinoma, dosed 52 weeks, study length 92 weeks) 3.89 mg/kg/day; (mouse, strain NMRI, males, inhaled, site: kidney, lesion: cystadenocarcinoma, dosed 78 weeks, study length 118 weeks) 4.52 mg/kg/day; (mouse, strain NMRI, males, inhaled, site: kidney, lesion: cystadenocarcinoma, dosed 78 weeks, study length 127 weeks) 0.501 mg/kg/day. Further, the TD50 by setting is: (mouse, strain NMRI, males, inhaled, site: kidney, lesion: cystadenoma, dosed 52 weeks, study length 92 weeks) 0.486 mg/kg/day; (mouse, strain NMRI, males, inhaled, site: kidney, lesion: cystadenoma, dosed 78 weeks, study length 118 weeks) 0.769 mg/kg/day; (mouse, strain NMRI, males, inhaled, site: kidney, lesion: cystadenoma, dosed 78 weeks, study length 127 weeks) 0.466 mg/kg/day; (rat, strain Wistar, females, inhaled, site: all sites, lesion: malignant lymphoma, dosed 78 weeks, study length 150 weeks) 3.86 mg/kg/day; (rat, strain Wistar, females, inhaled, site: kidney, lesion: cystadenoma, dosed 78 weeks, study length 150 weeks) 11.5 mg/kg/day; (rat, strain Wistar, females, inhaled, site: liver, lesion: cholangioma, dosed 78 weeks, study length 150 weeks) 3.86 mg/kg/day. Also, the TD50 reads like this: (rat, strain Wistar, females, inhaled, site: liver, lesion: hepatocellular adenoma, dosed 78 weeks, study length 150 weeks) 17.5 mg/kg/day; (rat, strain Wistar, males, inhaled, site: kidney, lesion: cystadenocarcinoma, dosed 78 weeks, study length 157 weeks) 26.2 mg/kg/day; (rat, strain Wistar, males, inhaled, site: kidney, lesion: cystadenoma, dosed 78 weeks, study length 157 weeks) 3.34 mg/kg/day; (rat, strain Wistar, males, inhaled, site: liver, lesion: cholangioma, dosed 78 weeks, study length 157 weeks) 3.97 mg/kg/day; (rat, strain Wistar, males, inhaled, site: liver, lesion: hepatocellular adenoma, dosed 78 weeks, study length 157 weeks) 12.9 mg/kg/day. Moreover, under “mouse, strain NMRI, males, inhaled, site: Harderian gland, lesion: cystadenoma, dosed 52 weeks, study length 92 weeks”, the carcinogen call was “positive”.
